Assay results published in ChEMBL document CHEMBL1125693, “Synthesis and biological activity of new halo-steroidal antiestrogens” (J Med Chem, 1991).

Assays:
[1] = target: T1, Estrogen receptor (Mus musculus) (UniProt O08537+P19785); assay: Inhibition of estradiol-induced uterine weight gain in ovariectomized BALB/c mice at 3 ug dose twice daily; assay type: functional
[2] = target: T1, Estrogen receptor (Mus musculus); assay: Inhibition of estradiol-induced uterine weight gain in ovariectomized BALB/c mice at 20 ug dose twice daily; assay type: functional

T1 sequence (O08537 whole entry, looked up): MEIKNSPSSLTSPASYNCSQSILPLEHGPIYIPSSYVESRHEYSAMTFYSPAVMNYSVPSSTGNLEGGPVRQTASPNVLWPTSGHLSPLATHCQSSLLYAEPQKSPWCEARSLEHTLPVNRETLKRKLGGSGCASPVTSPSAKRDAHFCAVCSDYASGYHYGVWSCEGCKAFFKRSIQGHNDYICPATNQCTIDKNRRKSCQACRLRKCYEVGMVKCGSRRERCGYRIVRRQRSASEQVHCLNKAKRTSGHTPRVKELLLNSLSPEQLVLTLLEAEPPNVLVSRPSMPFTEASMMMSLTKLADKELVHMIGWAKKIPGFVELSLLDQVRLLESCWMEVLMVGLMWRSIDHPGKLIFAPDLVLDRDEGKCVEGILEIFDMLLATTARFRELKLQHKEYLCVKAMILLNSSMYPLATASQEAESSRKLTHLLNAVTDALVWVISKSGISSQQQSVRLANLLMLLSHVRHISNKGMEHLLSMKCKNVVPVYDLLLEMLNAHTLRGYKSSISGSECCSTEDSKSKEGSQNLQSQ
T1 sequence (P19785 whole entry, looked up): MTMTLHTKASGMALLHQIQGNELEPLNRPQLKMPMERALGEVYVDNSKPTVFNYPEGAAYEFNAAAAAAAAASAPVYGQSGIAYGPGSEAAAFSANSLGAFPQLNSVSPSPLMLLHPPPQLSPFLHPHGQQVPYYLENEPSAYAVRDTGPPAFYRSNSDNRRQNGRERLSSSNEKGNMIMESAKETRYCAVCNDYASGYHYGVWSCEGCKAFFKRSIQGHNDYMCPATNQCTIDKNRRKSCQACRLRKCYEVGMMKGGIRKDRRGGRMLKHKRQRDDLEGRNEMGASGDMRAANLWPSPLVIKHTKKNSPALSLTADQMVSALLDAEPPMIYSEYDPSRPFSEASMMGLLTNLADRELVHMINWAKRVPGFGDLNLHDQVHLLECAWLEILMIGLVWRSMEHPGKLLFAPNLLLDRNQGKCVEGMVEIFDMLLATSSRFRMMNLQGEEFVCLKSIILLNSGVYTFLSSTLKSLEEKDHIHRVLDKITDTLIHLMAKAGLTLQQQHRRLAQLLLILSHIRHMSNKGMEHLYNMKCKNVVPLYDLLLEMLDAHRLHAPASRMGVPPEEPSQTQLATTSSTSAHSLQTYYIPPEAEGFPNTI

Compound CCCCN(C)C(=O)CCCCCCCCCC[C@@H]1Cc2cc(O)ccc2[C@H]2CC[C@]3(C)[C@H](O)[C@H](Cl)C[C@H]3[C@H]12 has an inhibition [1] of 35%.
Work on CCCCN(C)C(=O)CCCCCCCCCC[C@@H]1Cc2cc(O)ccc2[C@H]2CC[C@]3(C)[C@H](O)[C@H](Br)C[C@H]3[C@H]12 yielded an inhibition [2] of 78% and an inhibition [1] of 60%.
Compound CCCCN(C)C(=O)CCCCCCCCCC[C@@H]1Cc2cc(O)ccc2[C@H]2CC[C@]3(C)[C@@H](O)[C@H](I)C[C@H]3[C@H]12 has an inhibition [1] of 63%.
CCCCN(C)C(=O)CCCCCCCCCC[C@@H]1Cc2cc(O)ccc2[C@H]2CC[C@]3(C)[C@@H](O)[C@H](Br)C[C@H]3[C@H]12 gave an inhibition [2] of 79% and an inhibition [1] of 52%.
CCCCN(C)C(=O)CCCCCCCCCC[C@@H]1Cc2cc(O)ccc2[C@H]2CC[C@]3(C)[C@@H](O)[C@H](Cl)C[C@H]3[C@H]12 showed an inhibition [1] of 74%.
With CCCCN(C)C(=O)CCCCCCCCCC[C@@H]1Cc2cc(O)ccc2[C@H]2CC[C@]3(C)[C@@H](O)CC[C@H]3[C@H]12 the inhibition [1] was 40%.
